From the supplement of paper PMC10307832

How the values were obtained:
Test in all cases: relative viability (nuclei count vs DMSO), 5 days (fraction); higher = more cells survive
[1] = system: HCC-44
Summary of the method: (§1)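 The day after seeding in 1536-well plates, lung cancer cell lines were treated by pin tool with a single drug, or with a fixed anchor-drug dose together with five library-drug doses (not always all listed) in √10 steps. After 5 days, a combined fix-and-stain solution (final 0.05% Triton X-100, 1% formaldehyde, 1 ug/ml Hoechst) was added. Nuclei counted on 4× images gave relative viability as treated counts over vehicle counts, reported as the median of duplicate plates.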

[2] = system: NCI-H23
Summary of the method: as §1

[3] = system: LCLC-103H
Summary of the method: as §1

[4] = system: HCC-827
Summary of the method: as §1

[5] = system: A-427
Summary of the method: as §1

[6] = system: NCI-H441
Summary of the method: as §1

[7] = system: EKVX
Summary of the method: as §1

[8] = system: NCI-H596
Summary of the method: as §1

[9] = system: COR-L 105
Summary of the method: as §1

[10] = system: NCI-H1437
Summary of the method: as §1

[11] = system: HARA
Summary of the method: as §1

[12] = system: HCC-15
Summary of the method: as §1

[13] = system: NCI-H1975
Summary of the method: as §1

[14] = system: NCI-H650
Summary of the method: as §1

[15] = system: 201T
Summary of the method: as §1

[16] = system: NCI-H838
Summary of the method: as §1

[17] = system: NCI-H1792
Summary of the method: as §1

[18] = system: NCI-H1666
Summary of the method: as §1

[19] = system: COR-L23
Summary of the method: as §1

[20] = system: NCI-H520
Summary of the method: as §1

Clc1ccc(Nc2nnc(Cc3ccncc3)c3ccccc23)cc1 [Vatalanib] + CC(C)C[C@H](NC(=O)[C@H](Cc1ccccc1)NC(=O)c1cnccn1)B(O)O [Bortezomib] (partner 0.002 µM)
relative viability ([1]; first compound 0.04 µM): 0.92 | relative viability ([1]; first compound 0.1265 µM): 0.855 | relative viability ([1]; first compound 0.4 µM): 0.903 | relative viability ([1]; first compound 1.265 µM): 0.828 | relative viability ([1]; first compound 4 µM): 0.857 | relative viability ([2]; first compound 0.04 µM): 0.846 | relative viability ([2]; first compound 0.1265 µM): 1.03 | relative viability ([2]; first compound 0.4 µM): 1.14 | relative viability ([2]; first compound 1.265 µM): 0.865 | relative viability ([2]; first compound 4 µM): 1.08 | relative viability ([3]; first compound 0.04 µM): 1.07 | relative viability ([3]; first compound 0.1265 µM): 1.12 | relative viability ([3]; first compound 0.4 µM): 1.07 | relative viability ([3]; first compound 1.265 µM): 1.01 | relative viability ([3]; first compound 4 µM): 1.13 | relative viability ([4]; first compound 0.04 µM): 1.04 | relative viability ([4]; first compound 0.1265 µM): 0.877 | relative viability ([4]; first compound 0.4 µM): 1.05 | relative viability ([4]; first compound 1.265 µM): 1.12 | relative viability ([4]; first compound 4 µM): 1.03 | relative viability ([5]; first compound 0.04 µM): 0.965 | relative viability ([5]; first compound 0.1265 µM): 0.926 | relative viability ([5]; first compound 0.4 µM): 0.96 | relative viability ([5]; first compound 1.265 µM): 0.941 | relative viability ([5]; first compound 4 µM): 0.997 | relative viability ([6]; first compound 0.04 µM): 0.421 | relative viability ([6]; first compound 0.1265 µM): 0.444 | relative viability ([6]; first compound 0.4 µM): 0.52 | relative viability ([6]; first compound 1.265 µM): 0.448 | relative viability ([6]; first compound 4 µM): 0.448 | relative viability ([7]; first compound 0.04 µM): 1.1 | relative viability ([7]; first compound 0.1265 µM): 0.647 | relative viability ([7]; first compound 0.4 µM): 1.22 | relative viability ([7]; first compound 1.265 µM): 0.984 | relative viability ([7]; first compound 4 µM): 0.848 | relative viability ([8]; first compound 0.04 µM): 1.2 | relative viability ([8]; first compound 0.1265 µM): 1 | relative viability ([8]; first compound 0.4 µM): 1.01 | relative viability ([8]; first compound 1.265 µM): 1.11 | relative viability ([8]; first compound 4 µM): 1.01 | relative viability ([9]; first compound 0.04 µM): 0.941 | relative viability ([9]; first compound 0.1265 µM): 0.783 | relative viability ([9]; first compound 0.4 µM): 0.931 | relative viability ([9]; first compound 1.265 µM): 0.713 | relative viability ([9]; first compound 4 µM): 0.651 | relative viability ([10]; first compound 0.04 µM): 0.57 | relative viability ([10]; first compound 0.1265 µM): 0.577 | relative viability ([10]; first compound 0.4 µM): 0.507 | relative viability ([10]; first compound 1.265 µM): 0.445 | relative viability ([10]; first compound 4 µM): 0.495 | relative viability ([11]; first compound 0.04 µM): 0.71 | relative viability ([11]; first compound 0.1265 µM): 0.953 | relative viability ([11]; first compound 0.4 µM): 1.23 | relative viability ([11]; first compound 1.265 µM): 1.12 | relative viability ([11]; first compound 4 µM): 1.06 | relative viability ([12]; first compound 0.04 µM): 1.15 | relative viability ([12]; first compound 0.1265 µM): 1.03 | relative viability ([12]; first compound 0.4 µM): 1.03 | relative viability ([12]; first compound 1.265 µM): 0.978 | relative viability ([12]; first compound 4 µM): 1.04 | relative viability ([13]; first compound 0.04 µM): 0.407 | relative viability ([13]; first compound 0.1265 µM): 0.352 | relative viability ([13]; first compound 0.4 µM): 0.422 | relative viability ([13]; first compound 1.265 µM): 0.374 | relative viability ([13]; first compound 4 µM): 0.379 | relative viability ([14]; first compound 0.04 µM): 0.891 | relative viability ([14]; first compound 0.1265 µM): 0.736 | relative viability ([14]; first compound 1.265 µM): 0.6 | relative viability ([14]; first compound 4 µM): 0.812 | relative viability ([15]; first compound 0.04 µM): 1.08 | relative viability ([15]; first compound 0.1265 µM): 1.11 | relative viability ([15]; first compound 0.4 µM): 1.11 | relative viability ([15]; first compound 1.265 µM): 1.08 | relative viability ([15]; first compound 4 µM): 1.13 | relative viability ([16]; first compound 0.04 µM): 0.973 | relative viability ([16]; first compound 0.1265 µM): 0.99 | relative viability ([16]; first compound 0.4 µM): 0.805 | relative viability ([16]; first compound 1.265 µM): 0.68 | relative viability ([16]; first compound 4 µM): 0.798 | relative viability ([17]; first compound 0.04 µM): 0.946 | relative viability ([17]; first compound 0.1265 µM): 0.9 | relative viability ([17]; first compound 0.4 µM): 0.915 | relative viability ([17]; first compound 1.265 µM): 0.921 | relative viability ([17]; first compound 4 µM): 0.972 | relative viability ([18]; first compound 0.04 µM): 0.795 | relative viability ([18]; first compound 0.1265 µM): 0.701 | relative viability ([18]; first compound 0.4 µM): 0.851 | relative viability ([18]; first compound 1.265 µM): 0.67 | relative viability ([18]; first compound 4 µM): 0.733 | relative viability ([19]; first compound 0.04 µM): 1.1 | relative viability ([19]; first compound 0.1265 µM): 0.934 | relative viability ([19]; first compound 0.4 µM): 1.01 | relative viability ([19]; first compound 1.265 µM): 1.01 | relative viability ([19]; first compound 4 µM): 0.942 | relative viability ([20]; first compound 0.04 µM): 0.841 | relative viability ([20]; first compound 0.1265 µM): 0.573 | relative viability ([20]; first compound 0.4 µM): 0.677 | relative viability ([20]; first compound 1.265 µM): 0.547 | relative viability ([20]; first compound 4 µM): 0.702
